Reference: patent publication US9096524B2, “Anthelmintic agents and their use” (Intervet International B.V., priority 2009, dated 2015)
Like-named read-outs stand apart in the source and are kept apart here.

Experiments:
Haemonchus contortus = assay: Efficacy against Haemonchus contortus in jirds; type: in vivo, jirds (Meriones unguiculatus); conditions: 72 h, read-out: % Reduction in H.
Experimental: Anthelmintic effects of compounds of this invention were tested in vivo using Haemonchus contuortus in jirds (Meriones unguiculatus). The jirds were orally infected with approximately 750-3,000 third-stage larvae of Haemonchus contortus. Ten days after infection, the jirds in the treatment groups were treated once orally or subcutaneously at a dose of 2, 10, and/or 50 mg per kg bodyweight. Three days after treatment, the jirds were necropsied, and the larvae burden in the stomach is determined. The efficacy is defined as the reduction of the mean larvae count in the jirds of the treatment groups in comparison to the infected jirds in the untreated negative control group.

[1] = system: A. galli (intestinal roundworm of chicken) larval stage 3; O. dentatum (nodular worm of swine) larval stages 3 and 4; assay: Activity against Ascaridia galli and Oesophagostomum dentatum larvae in vitro (minimum effective concentration); type: cell-based
[2] = read-out: MEC (minimum effective concentration) against one or more of the tested nematodes, in vitro, one or more of A. galli L3, O. dentatum L3, L4, threshold 1 μM
[3] = read-out: MEC (minimum effective concentration) against one or more of the tested nematodes, in vitro, one or more of A. galli L3, O. dentatum L3, L4, threshold 7 μM
[4] = read-out: MEC (minimum effective concentration) against two or more of the tested nematodes, in vitro, two or more of A. galli L3, O. dentatum L3, L4, threshold 1 μM
[5] = jirds, 50 mg/kg, oral, single treatment, larvae burden in stomach 3 days after treatment
[6] = sc, jirds, 50 mg/kg, subcutaneous, single treatment, larvae burden in stomach 3 days after treatment

| Structure (SMILES) | minimal effective concentration [1, 4] [µM] | inhibition in vivo at 50 mg/kg (Haemonchus contortus; po) [%] | inhibition in vivo at 50 mg/kg (Haemonchus contortus; sc) [%] | inhibition in vivo at 50 mg/kg (Haemonchus contortus; [5]) [%] | inhibition in vivo at 50 mg/kg (Haemonchus contortus; [6]) [%] | also measured |
| --- | --- | --- | --- | --- | --- | --- |
| CC(C)(C)c1ccc(N2CCN(CCCC(=O)N3CCC(Nc4ccc([N+](=O)[O-])c(C(F)(F)F)c4)CC3)CC2)cc1 [Example 90, 4-[4-(4-tert-butyl-phenyl)-piperazin-1-yl]-1-[4-(4-nitro-3-trifluoromethyl-phenylamino)-piperidin-1-yl]-butan-1-one] | – | – | – | – | – | inhibition in vivo at 10 mg/kg (Haemonchus contortus; po): 46%; inhibition in vivo at 10 mg/kg (Haemonchus contortus; sc): 42% |
| CC(C)(C)c1ccc(N2CCN(CCC(=O)N3CCC(Nc4ccc([N+](=O)[O-])c(C(F)(F)F)c4)CC3)CC2)cc1 [Example 35, 3-[4-(4-tert-butyl-phenyl)-piperazin-1-yl]-1-[4-(4-nitro-3-trifluoromethyl-phenylamino)-piperidin-1-yl]-propan-1-one] | < 1 | 45 | 93 | – | – | minimal effective concentration [1, 2]: < 1 µM; minimal effective concentration [1, 3]: < 7 µM |
| CC(C)(C)c1ccc(C2CCN(CCC(=O)N3CCC(Nc4ccc([N+](=O)[O-])c(C(F)(F)F)c4)CC3)CC2)cc1 [Example 367] | – | – | – | 73 | 45 | minimal effective concentration ([1]; in vitro, two or more of A. galli L3, O. dentatum L3, L4, threshold 1 μM, read-out: MEC (minimum effective concentration) against two or more of the tested nematodes): < 1 µM |
| CS(=O)(=O)c1ccc(NC2CCN(C(=O)CCCN3CCN(c4ccc(C(F)(F)F)cc4)CC3)CC2)cc1C(F)(F)F [Example 30, 1-[4-(4-methanesulfonyl-3-trifluoromethyl-phenylamino)-piperidin-1-yl]-4-[4-(4-trifluoromethyl-phenyl)-piperazin-1-yl]-butan-1-one] | < 1 | 62 | 69 | – | – | minimal effective concentration [1, 2]: < 1 µM; minimal effective concentration [1, 3]: < 7 µM |
| O=C(CCN1CCN(c2nnc(C(F)(F)F)s2)CC1)N1CCC(Nc2ccc([N+](=O)[O-])c(C(F)(F)F)c2)CC1 [Example 124, 1-[4-(4-nitro-3-trifluoromethyl-phenylamino)-piperidin-1-yl]-3-[4-(5-trifluoromethyl-1,3,4-thiadiazol-2-yl)-piperazin-1-yl]-propan-1-one] | < 1 | – | – | – | – | minimal effective concentration [1, 2]: < 1 µM; minimal effective concentration [1, 3]: < 7 µM; inhibition in vivo at 10 mg/kg (Haemonchus contortus; po): 47%; inhibition in vivo at 10 mg/kg (Haemonchus contortus; sc): 75% |
| O=C(CCCN1CCN(c2ccc(C(F)(F)F)cc2)CC1)N1CCC(Nc2ccc(C(F)(F)F)cn2)CC1 [Example 51, 4-[4-(4-trifluoromethyl-phenyl)-piperazin-1-yl]-1-[4-(5-trifluoromethyl-pyridin-2-ylamino)-piperidin-1-yl]-butan-1-one] | < 1 | 86 | 63 | – | – | minimal effective concentration [1, 2]: < 1 µM; minimal effective concentration [1, 3]: < 7 µM |
| O=C(COC1CCN(c2ccc(C(F)(F)F)cc2)CC1)N1CCC(Nc2ccc([N+](=O)[O-])c(C(F)(F)F)c2)CC1 [Example 12, 1-[4-(4-nitro-3-trifluoromethyl-phenylamino)-piperidin-1-yl]-2-[1-(4-trifluoromethyl-phenyl)-piperidin-4-yloxy]-ethanone] | < 1 | 96 | 100 | – | – | minimal effective concentration [1, 2]: < 1 µM; minimal effective concentration [1, 3]: < 7 µM |
| CCCc1ccc(C2CCN(CCC(=O)N3CCC(Oc4ccc([N+](=O)[O-])c(OCC)c4)CC3)CC2)cc1 [Example 579] | < 1 | 96 | 96 | – | – | – |
| N#Cc1cccc(NC2CCN(C(=O)CCCN3CCN(c4ccc(C(F)(F)F)cc4)CC3)CC2)c1 [Example 7, 3-(1-{4-[4-(4-trifluoromethyl-phenyl)-piperazin-1-yl]-butyryl}-piperidin-4-ylamino)-benzonitrile] | < 1 | 99 | 98 | – | – | minimal effective concentration [1, 2]: < 1 µM; minimal effective concentration [1, 3]: < 7 µM |
| N#Cc1ccc(NC2CCN(C(=O)CCCN3CCN(c4ccc(C(F)(F)F)cn4)CC3)CC2)cc1C(F)(F)F [Example 157, 2-trifluoromethyl-4-(1-{4-[4-(5-trifluoromethyl-pyridin-2-yl)-piperazin-1-yl]-butyryl}-piperidin-4-ylamino)-benzonitrile] | – | – | – | – | – | inhibition in vivo at 10 mg/kg (Haemonchus contortus; jirds, 10 mg/kg, oral, single treatment, larvae burden in stomach 3 days after treatment): 96%; inhibition in vivo at 10 mg/kg (Haemonchus contortus; sc, jirds, 10 mg/kg, subcutaneous, single treatment, larvae burden in stomach 3 days after treatment): 93% |
| O=C(NCC1CCN(c2ccc(C(F)(F)F)cc2)CC1)N1CCC(Nc2ccc([N+](=O)[O-])c(C(F)(F)F)c2)CC1 [Example 539] | – | – | – | 82 | 73 | – |
| CC(C)(C)c1ccc(N2CCC(OCC(=O)N3CCC(Nc4ccc([N+](=O)[O-])c(C(F)(F)F)c4)CC3)CC2)cc1 [Example 416] | – | – | – | 88 | 98 | – |
| CN(CC1CCN(c2ccccc2)CC1)C(=O)N1CCC(Nc2ccc([N+](=O)[O-])c(C(F)(F)F)c2)CC1 [Example 565] | – | – | – | 70 | 90 | – |
| O=C(CCCN1CCN(c2ccc(C(F)(F)F)cc2)CC1)N1CCC(Nc2ccc([N+](=O)[O-])c(C(F)(F)F)c2)CC1 [Example 89, 1-[4-(4-nitro-3-trifluoromethyl-phenylamino)-piperidin-1-yl]-4-[4-(4-trifluoromethyl-phenyl)-piperazin-1-yl]-butan-1-one] | – | – | – | – | – | inhibition in vivo at 10 mg/kg (Haemonchus contortus; po): 99%; inhibition in vivo at 10 mg/kg (Haemonchus contortus; sc): 98% |
| CCCc1ccc(C2CCN(CCC(=O)N3CCC(Oc4ccc([N+](=O)[O-])c(OCC(C)C)c4)CC3)CC2)cc1 [Example 532] | – | – | – | 90 | 99 | – |
| O=C(CCN1CCN(c2ccc(OCc3ccccc3)cc2)CC1)N1CCC(Oc2ccc([N+](=O)[O-])c(C(F)(F)F)c2)CC1 [Example 58, 3-[4-(4-benzyloxy-phenyl)-piperazin-1-yl]-1-[4-(4-nitro-3-trifluoromethyl-phenoxy)-piperidin-1-yl]-propan-1-one] | – | 0 | 59 | – | – | – |
| Cc1ccc(N2CCC(CN(C)C(=O)N3CCC(Nc4ccc([N+](=O)[O-])c(C(F)(F)F)c4)CC3)CC2)cc1 [Example 566] | – | – | – | 83 | 93 | – |
| CC(C)COc1cc(OC2CCN(C(=O)CCN3CCC(c4ccc(C(C)(C)C)cc4)CC3)CC2)ccc1[N+](=O)[O-] [Example 533] | – | – | – | 83 | 74 | – |
| CC(CN1CCN(c2ccc(C(F)(F)F)cc2)CC1)C(=O)N1CCC(Nc2ccc(C#N)c(C(F)(F)F)c2)CC1 (stereo not drawn) [Example 92, 4-(1-{2-methyl-3-[4-(4-trifluoromethyl-phenyl)-piperazin-1-yl]-propionyl}-piperidin-4-ylamino)-2-trifluoromethyl-benzonitrile] | – | – | – | 100 | 91 | – |
| CCOc1cc(NC2CCN(C(=O)CCN3CCC(c4ccc(Cl)cc4)CC3)CC2)ccc1[N+](=O)[O-] [Example 414] | – | – | – | 0 | 98 | – |
| CC(CN1CCN(c2ccc(Cl)cc2)CC1)C(=O)N1CCC(Nc2ccc(C#N)c(C(F)(F)F)c2)CC1 (stereo not drawn) [Example 581] | – | 68 | 10 | – | – | – |
| O=C(CCCN1CCN(c2ccc(Cl)cc2)CC1)N1CC[C@H](Nc2ccc([N+](=O)[O-])c(C(F)(F)F)c2)C1 [Example 731] | – | – | – | – | – | minimal effective concentration ([1]; in vitro, one or more of A. galli L3, O. dentatum L3, L4, threshold 1 μM, read-out: MEC (minimum effective concentration) against one or more of the tested nematodes): < 1 µM |
